According to US20110166149A1, “PTERIDINE DERIVATIVES FOR TREATING RESPIRATORY DISEASE” (TARGEGEN INC., priority 2008, published 2011):

Columns and labels:
[1] = Aerodynamic particle size of nebulized suspensions, 7 stage impactor (Example 1); format: physicochemical; details: nebulized suspension
Experimental: 6,7-bis(3-hydroxyphenyl)-pteridine-2,4-diamine (Compound A) was formulated as a 20% suspension in a 5% tyloxapol solution in water. Particle size reduction was achieved using a colloid mill (magicLAB®, MK module, for 6 hours @ 12,000 rpm, while maintaining a temperature below 50° C.). Samples at 4, 0.4, 0.04 and 0.004% of compound A were prepared by dilution with DI water.
Nebulizations of the suspensions were carried out using a Pari LC Plus @ 3 LPM, using an active diluter at 5 LPM in a CH technologies nose-only exposure chamber. Aerodynamic particle size was determined by a 7 stage impactor from Intox at 1 LPM. Each stage extracted with acetonitrile:water 1:1 with 0.05% TFA and analyzed by HPLC against an external standard.

[2] = Particle size of nebulized solution, 7 stage cascade impactor (Example 5); format: physicochemical; details: nebulized solution ~3.3 mg/mL, pH ~3, tyloxapol/PVP 90F
Experimental: 36 mg of compound A was dissolved with the aid of 0.5 N HCl (QS to 1 g) under mixing and heat. 200 μL of this solution was mixed using a sonicator bath, if necessary with a separately prepared solution containing 1.8 mg of a 0.02% tyloxapol/2% PVP 90F and 34 μL of a 2 N NaOH, to give a final concentration of ˜3.3 mg/mL of compound A at a pH of ˜3.

[3] = tested on: ovalbumin (OVA) challenged mice; experiment: Mouse airway resistance, methacholine challenge (Example 4); format: in vivo; details: aerosolized formulations, FIG. 4
Experimental: A series of compositions for pulmonary delivery were prepared by first preparing a 20% suspension of compound A in a 5% tyloxapol solution in water. Particle size reduction was achieved using a colloid mill (magicLAB®, MK module, for 6 hours @ 12,000 rpm, while maintaining a temperature below 50° C.). Samples at 4% compound A were prepared by dilution with DI water. A 0.4% compound A suspension in 0.1% tyloxapol solution was made by dilution with SWFI (6.02 g of the 20% suspension was QS to 30.23 g with SWFI) and the following suspensions were also prepared: • […] in 0.01% tyloxapol solution: 2.52 g of a 0.4% compound A suspension was diluted to 100 g with SWFI water. • 0.01% compound A suspension in 0.01% tyloxapol solution: 10 g of a 0.1% compound A suspension was diluted to 100 g with SWFI water. • 0.001% compound A suspension in 0.01% tyloxapol solution 3: 10 g of a 0.1% compound A suspension was diluted to 100 g with SWFI water. […] Airway resistance in the model is induced via a methacholine challenge. Airway resistance is both a diagnostic and a hallmark of respiratory diseases such as asthma and COPD and the reduction of airway resistance is considered a beneficial outcome.

With `Nc1nc(N)c2nc(-c3cccc(O)c3)c(-c3cccc(O)c3)nc2n1` [Compound A, 6,7-bis(3-hydroxyphenyl)-pteridine-2,4-diamine] the “MMAD (GSD)” value ([1]; 0.004% Compound A) was 0.64 (2.35), the “MMAD (GSD)” value ([1]; 0.04% Compound A) was 0.69 (1.74) and the “MMAD (GSD)” value ([1]; 0.4% Compound A) was 0.83 (1.87). For the same molecule, the “MMAD (GSD)” value ([1]; 4% Compound A, MMAD = mass median aerodynamic diameter, GSD = geometric standard deviation) was 1.35 (1.98), the GSD [2] was 2.1 and the MMAD [2] was ~1 μm. For the same molecule, the airway resistance [3] was “reduced airway resistance”.
